US9617267B2, “Compounds and methods for kinase modulation, and indications therefor” (Plexxikon Inc., priority 2009, dated 2017)
Like-named read-outs stand apart in the source and are kept apart here.

Assays:
[1] = target: B-Raf (Homo sapiens (Human), UniProt P15056); experiment: B-Raf kinase activity biochemical assay (AlphaScreen, biotin-MEK1 phosphorylation); details: B-Raf
Outline: (§1)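 Compounds from a 0.1 mM DMSO stock were tested at 8 serially diluted points. Kinase reactions with 100 μM ATP (final) ran 45 min at room temperature, then were stopped with EDTA buffer containing anti-phospho-MEK1/2 antibody plus streptavidin donor and protein A acceptor beads.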

[2] = system: B-Raf; experiment: as above; details: for Biochemical activity ratio B/V600E: ratio of IC50 B-Raf / B-Raf V600E; for Biochemical activity ratio B/C: ratio of IC50 B-Raf / c-Raf-1
Outline: as §1

[3] = target: B-Raf V600E (Homo sapiens (Human), UniProt P15056, V600E); experiment: B-Raf V600E kinase activity biochemical assay (AlphaScreen, biotin-MEK1 phosphorylation); details: for IC50: B-Raf V600E; for Biochemical activity ratio V600E/C: ratio of IC50 B-Raf V600E / c-Raf-1
Chain of B-Raf V600E (P15056 whole entry V600E): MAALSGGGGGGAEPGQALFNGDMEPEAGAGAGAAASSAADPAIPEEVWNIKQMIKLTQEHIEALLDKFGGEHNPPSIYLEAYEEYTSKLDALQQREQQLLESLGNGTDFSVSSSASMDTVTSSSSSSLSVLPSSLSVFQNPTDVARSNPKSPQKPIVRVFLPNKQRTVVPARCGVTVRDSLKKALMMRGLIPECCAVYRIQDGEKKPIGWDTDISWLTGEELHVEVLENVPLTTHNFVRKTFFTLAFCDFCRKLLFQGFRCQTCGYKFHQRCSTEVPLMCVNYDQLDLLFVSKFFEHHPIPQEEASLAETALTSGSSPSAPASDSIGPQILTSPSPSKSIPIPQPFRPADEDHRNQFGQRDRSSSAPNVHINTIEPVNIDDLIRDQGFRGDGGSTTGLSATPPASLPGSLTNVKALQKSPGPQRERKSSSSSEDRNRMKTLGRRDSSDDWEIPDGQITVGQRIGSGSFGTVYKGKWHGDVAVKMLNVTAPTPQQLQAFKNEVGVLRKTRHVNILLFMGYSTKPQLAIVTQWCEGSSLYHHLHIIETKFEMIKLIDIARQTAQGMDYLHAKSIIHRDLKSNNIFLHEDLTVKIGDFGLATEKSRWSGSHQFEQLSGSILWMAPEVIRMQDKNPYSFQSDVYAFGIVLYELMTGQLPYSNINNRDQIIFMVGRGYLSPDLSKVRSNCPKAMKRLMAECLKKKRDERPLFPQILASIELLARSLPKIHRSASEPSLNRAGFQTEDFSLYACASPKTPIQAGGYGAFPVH
Outline: as §1

[4] = target: c-Raf-1 (Homo sapiens, UniProt P04049); experiment: c-Raf-1 kinase activity biochemical assay (AlphaScreen, biotin-MEK1 phosphorylation)
Chain of c-Raf-1 (P04049 whole entry, looked up): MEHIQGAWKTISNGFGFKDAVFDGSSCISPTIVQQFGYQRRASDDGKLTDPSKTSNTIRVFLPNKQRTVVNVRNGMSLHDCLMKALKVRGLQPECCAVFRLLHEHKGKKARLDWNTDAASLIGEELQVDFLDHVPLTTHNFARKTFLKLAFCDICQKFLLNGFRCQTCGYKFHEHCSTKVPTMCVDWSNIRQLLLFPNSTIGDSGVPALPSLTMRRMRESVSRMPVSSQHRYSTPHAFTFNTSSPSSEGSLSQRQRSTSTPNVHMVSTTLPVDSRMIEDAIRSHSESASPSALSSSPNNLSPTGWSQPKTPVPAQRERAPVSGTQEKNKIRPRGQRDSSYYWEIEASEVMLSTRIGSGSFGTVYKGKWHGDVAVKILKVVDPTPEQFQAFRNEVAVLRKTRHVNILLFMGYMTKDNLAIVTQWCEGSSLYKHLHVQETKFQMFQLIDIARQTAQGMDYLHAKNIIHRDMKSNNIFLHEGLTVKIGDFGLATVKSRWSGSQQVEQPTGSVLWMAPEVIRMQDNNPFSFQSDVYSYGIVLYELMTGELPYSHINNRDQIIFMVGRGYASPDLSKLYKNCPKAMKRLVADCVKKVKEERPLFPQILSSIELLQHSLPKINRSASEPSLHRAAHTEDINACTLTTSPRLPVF
Outline: as §1

[5] = Relative solubility by turbidity threshold concentration in aqueous buffers (pH 1.5, 4.5, 6.8, 7.4); format: physicochemical; details: for turbidity threshold (L, M, H) 1.4: pH 1.4 [sic] (method: SGF pH 1.5); for turbidity threshold (L, M, H) 4.5: pH 4.5 (SIF); for turbidity threshold (L, M, H) 6.8: pH 6.8 (SIF); for turbidity threshold (L, M, H) 7.4: pH 7.4 (HEPES)
Outline: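 Solubility class (high >250 μM, moderate 31.3–250 μM, low <31.3 μM) comes from the concentration where absorbance reaches a 0.01 threshold, averaged across 490/535/650 nm. Samples were compound dilutions from DMSO stock, 1 μL into 99 μL buffer at pH 1.5, 4.5, 6.8 or 7.4.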

[6] = target: CYP1A2 (Homo sapiens (Human), UniProt P05177); experiment: CYP enzyme inhibition, fluorescent substrate (CEC)
Chain of CYP1A2 (P05177 whole entry): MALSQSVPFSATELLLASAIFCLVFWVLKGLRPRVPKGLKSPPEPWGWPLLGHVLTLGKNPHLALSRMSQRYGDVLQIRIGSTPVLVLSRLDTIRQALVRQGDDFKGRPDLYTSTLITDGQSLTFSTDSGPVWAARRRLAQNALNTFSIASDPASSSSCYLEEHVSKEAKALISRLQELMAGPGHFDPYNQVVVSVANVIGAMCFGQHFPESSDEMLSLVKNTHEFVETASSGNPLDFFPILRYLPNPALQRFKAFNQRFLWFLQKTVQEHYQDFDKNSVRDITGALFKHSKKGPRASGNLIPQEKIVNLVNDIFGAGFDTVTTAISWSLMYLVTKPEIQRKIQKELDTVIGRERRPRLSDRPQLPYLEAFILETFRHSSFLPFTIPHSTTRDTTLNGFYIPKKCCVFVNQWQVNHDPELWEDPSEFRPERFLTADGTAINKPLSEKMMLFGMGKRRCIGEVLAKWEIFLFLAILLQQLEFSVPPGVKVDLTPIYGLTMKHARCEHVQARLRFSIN
Outline: (§2)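 IC50 derived from loss of fluorescent metabolite across a 10-point 1:1 dilution series. CYP2D6: 1.5 pmol enzyme, 1.5 μM AMMC, 30 min at 37 °C, 409/530 nm; CYP1A2: 0.5 pmol, 5 μM CEC, 15 min, 409/460 nm. Compounds pre-incubated 10 min in NADPH-regenerating mix.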

[7] = target: CYP2C19 (Homo sapiens (Human), UniProt P33261); experiment: CYP enzyme inhibition, fluorescent substrate (CEC)
Chain of CYP2C19 (P33261 whole entry): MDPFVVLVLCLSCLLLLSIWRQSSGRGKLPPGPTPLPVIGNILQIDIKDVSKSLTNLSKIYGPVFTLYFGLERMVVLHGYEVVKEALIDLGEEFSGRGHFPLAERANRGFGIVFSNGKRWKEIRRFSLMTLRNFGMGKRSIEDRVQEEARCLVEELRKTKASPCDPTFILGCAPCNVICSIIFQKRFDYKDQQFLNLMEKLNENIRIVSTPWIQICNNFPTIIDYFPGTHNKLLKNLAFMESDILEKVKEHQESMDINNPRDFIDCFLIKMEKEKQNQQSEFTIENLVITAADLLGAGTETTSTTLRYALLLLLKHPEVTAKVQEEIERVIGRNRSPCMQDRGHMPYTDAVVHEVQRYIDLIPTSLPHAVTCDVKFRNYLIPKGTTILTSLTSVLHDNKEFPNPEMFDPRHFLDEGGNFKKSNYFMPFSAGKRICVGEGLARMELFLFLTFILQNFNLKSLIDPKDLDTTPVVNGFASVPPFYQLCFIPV
Outline: (§3)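 First, 100 mM DMSO stocks are diluted into acetonitrile, then twofold through co-factor mix for 10 points. Next, mixtures are preincubated 10 min at 37 °C.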

[8] = target: CYP2C9 (Homo sapiens (Human), UniProt P11712); experiment: CYP enzyme inhibition, fluorescent substrate (MFC)
Chain of CYP2C9 (P11712 whole entry): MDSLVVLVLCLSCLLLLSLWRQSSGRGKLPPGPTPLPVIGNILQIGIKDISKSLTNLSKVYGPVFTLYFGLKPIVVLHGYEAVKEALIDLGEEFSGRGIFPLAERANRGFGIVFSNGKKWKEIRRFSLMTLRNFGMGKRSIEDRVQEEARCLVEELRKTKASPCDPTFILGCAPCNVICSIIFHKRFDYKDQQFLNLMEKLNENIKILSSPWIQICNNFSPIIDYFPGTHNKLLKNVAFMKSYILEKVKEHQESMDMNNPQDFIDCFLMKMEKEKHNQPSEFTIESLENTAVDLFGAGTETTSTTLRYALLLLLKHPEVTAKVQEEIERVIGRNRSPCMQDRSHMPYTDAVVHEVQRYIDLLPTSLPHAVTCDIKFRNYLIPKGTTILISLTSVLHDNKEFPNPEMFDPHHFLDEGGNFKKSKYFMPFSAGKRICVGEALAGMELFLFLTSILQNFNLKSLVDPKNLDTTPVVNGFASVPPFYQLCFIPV
Outline: as §3

[9] = target: CYP2D6 (Homo sapiens (Human), UniProt P10635); experiment: CYP enzyme inhibition, fluorescent substrate (AMMC); format: in vitro ADME; details: read-out: Cyp IC50 2D6
Chain of CYP2D6 (P10635 whole entry): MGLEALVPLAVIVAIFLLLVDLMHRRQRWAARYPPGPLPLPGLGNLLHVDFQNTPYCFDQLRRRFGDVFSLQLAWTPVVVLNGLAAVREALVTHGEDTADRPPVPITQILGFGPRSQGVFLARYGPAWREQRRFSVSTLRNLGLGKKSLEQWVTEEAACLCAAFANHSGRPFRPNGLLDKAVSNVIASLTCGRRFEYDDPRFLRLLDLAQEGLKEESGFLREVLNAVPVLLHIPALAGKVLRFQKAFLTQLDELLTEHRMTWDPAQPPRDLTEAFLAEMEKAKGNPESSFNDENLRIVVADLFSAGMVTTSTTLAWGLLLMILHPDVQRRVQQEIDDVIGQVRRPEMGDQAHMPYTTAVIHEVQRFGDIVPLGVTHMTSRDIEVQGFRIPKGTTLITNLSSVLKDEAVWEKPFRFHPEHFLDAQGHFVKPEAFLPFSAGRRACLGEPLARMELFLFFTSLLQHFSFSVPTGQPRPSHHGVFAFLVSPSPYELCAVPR
Outline: as §2

[10] = target: CYP3A4(BFC) (Homo sapiens (Human), UniProt P08684); experiment: CYP enzyme inhibition, fluorescent substrate BFC
Chain of CYP3A4(BFC) (P08684 whole entry): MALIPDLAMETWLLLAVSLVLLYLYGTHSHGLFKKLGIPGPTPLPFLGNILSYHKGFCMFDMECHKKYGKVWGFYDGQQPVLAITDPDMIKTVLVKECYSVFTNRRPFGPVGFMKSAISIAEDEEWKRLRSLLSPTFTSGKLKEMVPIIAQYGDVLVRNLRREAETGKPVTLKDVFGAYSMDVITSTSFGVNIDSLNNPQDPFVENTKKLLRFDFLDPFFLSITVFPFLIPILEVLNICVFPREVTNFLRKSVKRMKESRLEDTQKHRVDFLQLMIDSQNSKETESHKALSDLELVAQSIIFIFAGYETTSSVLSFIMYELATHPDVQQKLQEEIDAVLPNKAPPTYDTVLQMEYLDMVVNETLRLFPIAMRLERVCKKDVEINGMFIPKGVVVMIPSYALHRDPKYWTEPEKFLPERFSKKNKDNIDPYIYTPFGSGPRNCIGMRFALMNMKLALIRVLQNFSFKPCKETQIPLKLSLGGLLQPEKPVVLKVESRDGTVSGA
Outline: as §3

[11] = target: CYP3A4(BQ) (Homo sapiens (Human), UniProt P08684); experiment: CYP enzyme inhibition, fluorescent substrate BQ; details: read-out: Cyp IC50 3A4(BQ); CYP3A4, substrate BQ
Chain of CYP3A4(BQ) (P08684 whole entry): as above
Outline: as §3

[12] = read-out: Cyp IC50 1A2, CYP1A2, substrate CEC
[13] = read-out: Cyp IC50 3A4(BFC), CYP3A4, substrate BFC
[14] = read-out: Cyp IC50 2C9, CYP2C9, substrate MFC
[15] = read-out: Cyp IC50 2C19, CYP2C19, substrate CEC

Chain of B-Raf (Homo sapiens (Human), UniProt P15056) (P15056 whole entry): as the sequence (P15056 whole entry V600E) above, with E600V counted along it

SMILES	IC50 [1] [µM]	Biochemical activity ratio B/V600E [2]	Biochemical activity ratio B/C [2]	IC50 [3] [µM]	Biochemical activity ratio V600E/C [3]	IC50 [4] [µM]	turbidity threshold (L, M, H) 1.4 [5]	turbidity threshold (L, M, H) 4.5 [5]	turbidity threshold (L, M, H) 6.8 [5]	turbidity threshold (L, M, H) 7.4 [5]	IC50 [6, 12] [µM]	IC50 [7] [µM]	IC50 [8] [µM]	IC50 [9] [µM]	IC50 [10, 13] [µM]	IC50 [11] [µM]	IC50 ([6]; human, 15 min) [µM]	IC50 [8, 14] [µM]	IC50 [7, 15] [µM]	IC50 [10] [µM]
COc1ncnc2[nH]cc(C(=O)c3c(F)ccc(NS(=O)(=O)c4ccc(C(C)C)cc4)c3F)c12 [P-1010, N-[2,4-Difluoro-3-(4-methoxy-7H-pyrrolo[2,3-d]pyrimidine-5-carbonyl)-phenyl]-4-isopropyl-benzenesulfonamide]	> 0.1	0.1-10	0.1-10	> 0.1	>10	> 0.1	L (low solubility if the threshold concentration is <31.3 μM)	L (low solubility if the threshold concentration is <31.3 μM)	L (low solubility if the threshold concentration is <31.3 μM)	M (moderate solubility if the threshold concentration is 31.3 μM to 250 μM)	> 10	5 to 10	5 to 10	> 10	> 10	> 10				
O=C(c1c(F)ccc(NS(=O)(=O)c2ccc(C(F)(F)F)cc2)c1F)c1c[nH]c2ncnc(NC3CC3)c12 [P-1011, N-[3-(4-Cyclopropylamino-7H-pyrrolo[2,3-d]pyrimidine-5-carbonyl)-2,4-difluoro-phenyl]-4-trifluoromethyl-benzenesulfonamide]	< 0.1	0.1-10	>10	> 0.1	>10	< 0.1	M (moderate solubility if the threshold concentration is 31.3 μM to 250 μM)	L (low solubility if the threshold concentration is <31.3 μM)	L (low solubility if the threshold concentration is <31.3 μM)	L (low solubility if the threshold concentration is <31.3 μM)		5 to 10		> 10	< 5	> 10	> 10	> 10		
O=C(c1c(F)ccc(NS(=O)(=O)c2ccc(C(F)(F)F)cc2)c1F)c1c[nH]c2ncnc(O)c12 [P-1012, N-[2,4-Difluoro-3-(4-hydroxy-7H-pyrrolo[2,3-d]pyrimidine-5-carbonyl)-phenyl]-4-trifluoromethyl-benzenesulfonamide]	> 0.1	0.1-10	0.1-10	> 0.1	>10	< 0.1	M (moderate solubility if the threshold concentration is 31.3 μM to 250 μM)	M (moderate solubility if the threshold concentration is 31.3 μM to 250 μM)	H (high solubility if the threshold concentration is >250 μm)	H (high solubility if the threshold concentration is >250 μm)	> 10			> 10	> 10	> 10		> 10	> 10	
O=C(c1c(F)ccc(NS(=O)(=O)c2ccc(C(F)(F)F)cc2)c1F)c1c[nH]c2ncnc(NC3CCOCC3)c12 [P-1013, N-{2,4-Difluoro-3-[4-(tetrahydro-pyran-4-ylamino)-7H-pyrrolo[2,3-d]pyrimidine-5-carbonyl]-phenyl}-4-trifluoromethyl-benzenesulfonamide]	< 0.1	0.1-10	>10	> 0.1	>10	< 0.1	L (low solubility if the threshold concentration is <31.3 μM)	L (low solubility if the threshold concentration is <31.3 μM)	L (low solubility if the threshold concentration is <31.3 μM)	M (moderate solubility if the threshold concentration is 31.3 μM to 250 μM)	> 10			> 10	> 10	> 10		> 10	> 10	
CCCc1ccc(S(=O)(=O)Nc2ccc(F)c(C(=O)c3c[nH]c4ncnc(NC5CC5)c34)c2F)cc1 [P-1040, N-[3-(4-cyclopropylamino-7H-pyrrolo[2,3-d]pyrimidine-5-carbonyl)-2,4-difluoro-phenyl]-4-propyl-benzenesulfonamide]	< 0.1	0.1-10	0.1-10	> 0.1	>10	< 0.1	M (moderate solubility if the threshold concentration is 31.3 μM to 250 μM)	L (low solubility if the threshold concentration is <31.3 μM)	L (low solubility if the threshold concentration is <31.3 μM)	L (low solubility if the threshold concentration is <31.3 μM)				> 10		> 10	> 10	> 10	> 10	5 to 10
CCc1ccc(S(=O)(=O)Nc2ccc(F)c(C(=O)c3c[nH]c4ncnc(NC(C)C)c34)c2F)cc1 [P-1042, N-[2,4-Difluoro-3-(4-isopropylamino-7H-pyrrolo[2,3-d]pyrimidine-5-carbonyl)-phenyl]-4-ethyl-benzenesulfonamide]	< 0.1	0.1-10	0.1-10	< 0.1	>10	< 0.1	M (moderate solubility if the threshold concentration is 31.3 μM to 250 μM)	L (low solubility if the threshold concentration is <31.3 μM)	L (low solubility if the threshold concentration is <31.3 μM)	L (low solubility if the threshold concentration is <31.3 μM)		5 to 10		> 10	> 10	> 10	> 10	> 10		
O=C(c1c(F)ccc(NS(=O)(=O)c2ccc(C(F)(F)F)cc2)c1F)c1c[nH]c2ncnc(NCCO)c12 [P-1043, N-{2,4-Difluoro-3-[4-(2-hydroxy-ethylamino)-7H-pyrrolo[2,3-d]pyrimidine-5-carbonyl]-phenyl}-4-trifluoromethyl-benzenesulfonamide]	< 0.1	0.1-10	>10	> 0.1	>10	< 0.1	H (high solubility if the threshold concentration is >250 μm)	M (moderate solubility if the threshold concentration is 31.3 μM to 250 μM)	M (moderate solubility if the threshold concentration is 31.3 μM to 250 μM)	M (moderate solubility if the threshold concentration is 31.3 μM to 250 μM)				> 10	> 10	> 10	> 10	> 10	> 10	
